# Data as given in patent US20080114055A1, “Thioxanthone Compounds to Reverse Weight Loss” (ZOLTAN LABORATORIES LLC, priority 2006, published 2008).
# Tests used:
# Water solubility = assay type: physicochemical; details: at the concentration used in vivo
# [1] = test system: HT-168 human melanoma tumor; test: HT-168 human melanoma model: body, total and tumor weight; assay type: in vivo, mice; details: for Body weight: total minus tumor weight
# Excerpt: Tumors were developed in a homozygous line of C.B.-171 cr scid/scid adult female mice kept at specified pathogen free (SPF) hygienic levels. Suspensions of HL-60 human leukemia cells (about 1,500,000 cells), or approximately 0.1 cm^3 volume of tumor tissue derived from HT-168 human melanoma, PC-3 human prostate adenocarcinoma, or T47D human breast carcinoma were implanted subcutaneously to develop the tumors. After 12-18 days when the tumor-bearing mice were first treated, the size of the tumors was in the 0.2-0.4 cm^3 range. CCcompound1 was dissolved in physiological (0.9%) saline (NaCl) and applied subcutaneously in 50 μl volume. Tumor volume was determined by calipers in three dimensions; this technique is well known to one having ordinary skill in the art. Tumor volume was calculated according to the generally accepted formula: V=a^2×b×π/6, where “a” and “b” mean the shortest and longest diameter, respectively, of the measured tumor. Tumor weight was calculated from tumor volume using a 0.7 (tumor weight) : 1 (tumor volume) ratio. Total weight and tumor volume/weight was measured regularly (at least every second day). In all tumor experiments, each treatment group consisted of five animals. Accordingly, all data are the average of five independent determinations (one determination for each animal). HT-168 human tumors were developed in mice as described above. Treatments with CCcompound1 were started on day 17 after tumor implantation and conducted for the first five days and then for another five days with two treatment-free days inserted between the two series of treatments. The results, shown in TABLE 3, indicate that between day 17 and 30 after tumor implantation, the melanoma tumor caused a 2.7-g loss in body weight.
# T47D human breast tumor = test: T47D human estrogen receptor positive breast cancer model: body, total and tumor weight; assay type: in vivo, mice; details: for Body weight: total minus tumor weight
# Excerpt: Tumors were developed in a homozygous line of C.B.-171 cr scid/scid adult female mice kept at specified pathogen free (SPF) hygienic levels. Suspensions of HL-60 human leukemia cells (about 1,500,000 cells), or approximately 0.1 cm^3 volume of tumor tissue derived from HT-168 human melanoma, PC-3 human prostate adenocarcinoma, or T47D human breast carcinoma were implanted subcutaneously to develop the tumors. After 12-18 days when the tumor-bearing mice were first treated, the size of the tumors was in the 0.2-0.4 cm^3 range. CCcompound1 was dissolved in physiological (0.9%) saline (NaCl) and applied subcutaneously in 50 μl volume. Tumor volume was determined by calipers in three dimensions; this technique is well known to one having ordinary skill in the art. Tumor volume was calculated according to the generally accepted formula: V=a^2×b×π/6, where “a” and “b” mean the shortest and longest diameter, respectively, of the measured tumor. Tumor weight was calculated from tumor volume using a 0.7 (tumor weight) : 1 (tumor volume) ratio. Total weight and tumor volume/weight was measured regularly (at least every second day). In all tumor experiments, each treatment group consisted of five animals. Accordingly, all data are the average of five independent determinations (one determination for each animal). T47D human tumors were developed in mice as described above. Treatments with CCcompound1 were started on day 17 after tumor implantation and conducted for five days and then followed by an additional five days with 2 treatment-free days inserted between the 2 series of treatments. The results, shown in TABLE 5, indicate that between day 17 and 28 after tumor implantation, this breast tumor caused about a 2.5-g loss in body weight. […] Thus, in this human breast tumor model, CCcompound1 is a potent anti-cachectic agent and its effects on body weight are accompanied by significant anti-tumor effects.
# [2] = test system: PC-3 human prostate tumor; test: PC-3 human prostate cancer model: body, total and tumor weight; assay type: in vivo, mice; details: for Body weight: total minus tumor weight
# Excerpt: Tumors were developed in a homozygous line of C.B.-171 cr scid/scid adult female mice kept at specified pathogen free (SPF) hygienic levels. Suspensions of HL-60 human leukemia cells (about 1,500,000 cells), or approximately 0.1 cm^3 volume of tumor tissue derived from HT-168 human melanoma, PC-3 human prostate adenocarcinoma, or T47D human breast carcinoma were implanted subcutaneously to develop the tumors. After 12-18 days when the tumor-bearing mice were first treated, the size of the tumors was in the 0.2-0.4 cm^3 range. CCcompound1 was dissolved in physiological (0.9%) saline (NaCl) and applied subcutaneously in 50 μl volume. Tumor volume was determined by calipers in three dimensions; this technique is well known to one having ordinary skill in the art. Tumor volume was calculated according to the generally accepted formula: V=a^2×b×π/6, where “a” and “b” mean the shortest and longest diameter, respectively, of the measured tumor. Tumor weight was calculated from tumor volume using a 0.7 (tumor weight) : 1 (tumor volume) ratio. Total weight and tumor volume/weight was measured regularly (at least every second day). In all tumor experiments, each treatment group consisted of five animals. Accordingly, all data are the average of five independent determinations (one determination for each animal). PC-3 human tumors were developed in mice as described above. Treatments with CCcompound1 were started on day 12 after tumor implantation and conducted for five days and then for another three days with two treatment-free days inserted between the two series of treatments. The results, shown in TABLE 4, indicate that between day 12 and 21 after tumor implantation, the prostate tumor caused about 5.7-g loss in body weight which corresponds to about 22% reduction.
# [3] = test system: HL60 human leukemia tumor; test: HL60 human leukemia tumor model: body, total and tumor weight; assay type: in vivo, mice; details: for Body weight: total minus tumor weight
# Excerpt: Tumors were developed in a homozygous line of C.B.-171 cr scid/scid adult female mice kept at specified pathogen free (SPF) hygienic levels. Suspensions of HL-60 human leukemia cells (about 1,500,000 cells), or approximately 0.1 cm^3 volume of tumor tissue derived from HT-168 human melanoma, PC-3 human prostate adenocarcinoma, or T47D human breast carcinoma were implanted subcutaneously to develop the tumors. After 12-18 days when the tumor-bearing mice were first treated, the size of the tumors was in the 0.2-0.4 cm^3 range. CCcompound1 was dissolved in physiological (0.9%) saline (NaCl) and applied subcutaneously in 50 μl volume. Tumor volume was determined by calipers in three dimensions; this technique is well known to one having ordinary skill in the art. Tumor volume was calculated according to the generally accepted formula: V=a^2×b×π/6, where “a” and “b” mean the shortest and longest diameter, respectively, of the measured tumor. Tumor weight was calculated from tumor volume using a 0.7 (tumor weight) : 1 (tumor volume) ratio. Total weight and tumor volume/weight was measured regularly (at least every second day). In all tumor experiments, each treatment group consisted of five animals. Accordingly, all data are the average of five independent determinations (one determination for each animal). HL60 human tumors were developed in mice as described above. Treatments with CCcompound1 were started on day 18 after tumor implantation and conducted for the first five days and then for three days with two treatment-free days inserted between the two series of treatments. The results, shown in TABLE 2, indicate that between day 18 and 27 after tumor implantation, the leukemia tumor caused about 4-g loss in body weight.
# [4] = 1.0 mg/kg s.c., day 17 (treatment start)
# [5] = 1.0 mg/kg s.c., day 17 after tumor transplantation (treatment start)
# [6] = 2.0 mg/kg s.c., day 17 (treatment start)
# [7] = 4.0 mg/kg s.c., day 17 (treatment start)
# [8] = 1.0 mg/kg s.c., day 12 (treatment start)
# [9] = 2.0 mg/kg s.c., day 12 (treatment start)
# [10] = 4.0 mg/kg s.c., day 12 (treatment start)
# [11] = 0.5 mg/kg s.c., day 18 (treatment start)
# [12] = 1.0 mg/kg s.c., day 18 (treatment start)
# [13] = 2.0 mg/kg s.c., day 18 (treatment start)
compound,measurement,setting,value
"Cc1c(OCC(O)C[N+](C)(C)C)cc2c(=O)c3ccccc3sc2c1C.[Cl-] (centres unmarked) [CCcompound1, [3-(3,4-Dimethyl-9-oxo-9H-thioxanthen-2-yloxy)-2-hydroxypropyl]trimethyl-ammonium chloride]",Water solubility,Water solubility,fully water-soluble
same,Tumor weight,[1]; [4],0.2 g
same,Body weight,[1]; [4],23.8 g
same,Total weight,[1]; [5],24.0 g
same,Tumor weight,"[1]; 1.0 mg/kg s.c., day 30",2.1 g
same,Body weight,"[1]; 1.0 mg/kg s.c., day 30",25.5 g
same,Total weight,"[1]; 1.0 mg/kg s.c., day 30 after tumor transplantation",27.6 g
same,Total weight,[1]; [6],23.1 g
same,Tumor weight,[1]; [6],0.2 g
same,Body weight,[1]; [6],22.9 g
same,Total weight,"[1]; 2.0 mg/kg s.c., day 30",25.8 g
same,Tumor weight,"[1]; 2.0 mg/kg s.c., day 30",1.8 g
same,Body weight,"[1]; 2.0 mg/kg s.c., day 30",24.0 g
same,Total weight,[1]; [7],23.8 g
same,Tumor weight,[1]; [7],0.2 g
same,Body weight,[1]; [7],23.6 g
same,Total weight,"[1]; 4.0 mg/kg s.c., day 30",29.6 g
same,Tumor weight,"[1]; 4.0 mg/kg s.c., day 30",1.2 g
same,Body weight,"[1]; 4.0 mg/kg s.c., day 30",28.4 g
same,Effect on body weight loss,"[1]; 1-mg/kg, between day 17 and 30",sufficient to reverse body weight loss
same,Body weight gain,"[1]; 4-mg/kg, between day 17 and 30",~5 g
same,Reduction of tumor weight,"[1]; 4-mg/kg, day 30",more than 50%
same,Tumor weight,T47D human breast tumor; [4],0.2 g
same,Body weight,T47D human breast tumor; [4],26.3 g
same,Total weight,T47D human breast tumor; [5],26.5 g
same,Tumor weight,"T47D human breast tumor; 1.0 mg/kg s.c., day 28",1.6 g
same,Body weight,"T47D human breast tumor; 1.0 mg/kg s.c., day 28",27.7 g
same,Total weight,"T47D human breast tumor; 1.0 mg/kg s.c., day 28 after tumor transplantation",29.3 g
same,Total weight,T47D human breast tumor; [6],26.9 g
same,Tumor weight,T47D human breast tumor; [6],0.2 g
same,Body weight,T47D human breast tumor; [6],26.7 g
same,Total weight,"T47D human breast tumor; 2.0 mg/kg s.c., day 28",28.7 g
same,Tumor weight,"T47D human breast tumor; 2.0 mg/kg s.c., day 28",1.5 g
same,Body weight,"T47D human breast tumor; 2.0 mg/kg s.c., day 28",27.2 g
same,Total weight,T47D human breast tumor; [7],27.0 g
same,Tumor weight,T47D human breast tumor; [7],0.2 g
same,Body weight,T47D human breast tumor; [7],26.8 g
same,Total weight,"T47D human breast tumor; 4.0 mg/kg s.c., day 28",30.9 g
same,Tumor weight,"T47D human breast tumor; 4.0 mg/kg s.c., day 28",1.2 g
same,Body weight,"T47D human breast tumor; 4.0 mg/kg s.c., day 28",29.7 g
same,Effect on body weight loss,"T47D human breast tumor; 1-mg/kg, between day 17 and 28",fully reversed body weight loss
same,Body weight gain,"T47D human breast tumor; 4-mg/kg, between day 17 and 28",3.1 g
same,Reduction of tumor weight,"T47D human breast tumor; 4-mg/kg, day 28",about 40%
same,Tumor weight,[2]; [8],0.4 g
same,Body weight,[2]; [8],25.9 g
same,Total weight,"[2]; 1.0 mg/kg s.c., day 12 after tumor transplantation (treatment start)",26.3 g
same,Tumor weight,"[2]; 1.0 mg/kg s.c., day 21",2.2 g
same,Body weight,"[2]; 1.0 mg/kg s.c., day 21",23.1 g
same,Total weight,"[2]; 1.0 mg/kg s.c., day 21 after tumor transplantation",25.3 g
same,Total weight,[2]; [9],26.1 g
same,Tumor weight,[2]; [9],0.4 g
same,Body weight,[2]; [9],25.7 g
same,Total weight,"[2]; 2.0 mg/kg s.c., day 21",28.4 g
same,Tumor weight,"[2]; 2.0 mg/kg s.c., day 21",1.9 g
same,Body weight,"[2]; 2.0 mg/kg s.c., day 21",26.5 g
same,Total weight,[2]; [10],26.9 g
same,Tumor weight,[2]; [10],0.2 g
same,Body weight,[2]; [10],26.7 g
same,Total weight,"[2]; 4.0 mg/kg s.c., day 21",32.4 g
same,Tumor weight,"[2]; 4.0 mg/kg s.c., day 21",1.4 g
same,Body weight,"[2]; 4.0 mg/kg s.c., day 21",31.0 g
same,Effect on body weight loss,"[2]; 1-mg/kg, between day 12 and 21",only partially prevented body weight loss
same,Body weight gain,"[2]; 4-mg/kg, between day 12 and 21",4.3 g
same,Reduction of tumor weight,"[2]; 4-mg/kg, day 21",about 48%
same,Tumor weight,[3]; [11],0.7 g
same,Body weight,[3]; [11],25.5 g
same,Total weight,"[3]; 0.5 mg/kg s.c., day 18 after tumor transplantation (treatment start)",26.2 g
same,Tumor weight,"[3]; 0.5 mg/kg s.c., day 27",2.8 g
same,Body weight,"[3]; 0.5 mg/kg s.c., day 27",24.0 g
same,Total weight,"[3]; 0.5 mg/kg s.c., day 27 after tumor transplantation",26.8 g
same,Total weight,[3]; [12],26.2 g
same,Tumor weight,[3]; [12],0.4 g
same,Body weight,[3]; [12],25.8 g
same,Total weight,"[3]; 1.0 mg/kg s.c., day 27",30.3 g
same,Tumor weight,"[3]; 1.0 mg/kg s.c., day 27",1.9 g
same,Body weight,"[3]; 1.0 mg/kg s.c., day 27",28.4 g
same,Total weight,[3]; [13],27.0 g
same,Tumor weight,[3]; [13],0.5 g
same,Body weight,[3]; [13],26.5 g
same,Total weight,"[3]; 2.0 mg/kg s.c., day 27",30.6 g
same,Tumor weight,"[3]; 2.0 mg/kg s.c., day 27",1.9 g
same,Body weight,"[3]; 2.0 mg/kg s.c., day 27",28.7 g
same,Effect on body weight loss,"[3]; 0.5-mg/kg, between day 18 and 27",reduced body weight loss
same,Effect on body weight,"[3]; 1-mg/kg, between day 18 and 27",gained weight
same,Effect on body weight,"[3]; 2-mg/kg, between day 18 and 27",gained weight
same,Reduction of tumor weight,"[3]; higher amounts of CCcompound1, day 27",about 45%
